According to US10590085B2, “Heterocyclic amides as kinase inhibitors” (GlaxoSmithKline Intellectual Property Development Limited, priority 2015, dated 2020):
pIC50: −log10 of the molar value.

What was measured:
RIP1 kinase = target: T1, RIP1 kinase (Homo sapiens, UniProt Q13546); test: fluorescent polarization based binding assay; conditions: mean value, minimum of 2 experiments
T1 sequence (Q13546 1-375 limits assumed): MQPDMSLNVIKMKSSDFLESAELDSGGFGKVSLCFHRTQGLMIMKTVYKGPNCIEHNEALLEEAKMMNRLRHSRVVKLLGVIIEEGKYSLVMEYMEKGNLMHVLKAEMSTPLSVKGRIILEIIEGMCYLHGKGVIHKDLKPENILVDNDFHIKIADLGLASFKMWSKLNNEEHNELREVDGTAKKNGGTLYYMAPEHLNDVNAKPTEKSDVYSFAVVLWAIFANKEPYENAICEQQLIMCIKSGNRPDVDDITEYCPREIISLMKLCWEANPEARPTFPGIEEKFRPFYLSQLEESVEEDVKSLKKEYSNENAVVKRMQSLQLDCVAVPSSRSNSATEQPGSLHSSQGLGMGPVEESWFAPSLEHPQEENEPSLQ
Source text: A fluorescent polarization based binding assay was used to asses the activity of the compounds of this invention, the details of which are disclosed in International Patent Appln. No. PCT/IB2014/059004, now, International Patent Appln. Pub.

[1] = system: mouse L929 fibrosarcoma cells; test: necroptosis assay in L929 cells; assay type: cell-based; conditions: viability by cellular ATP (Cell Titer-Glo), read-out: mean pIC50, inhibition of necrosis in L929 cells (converted)
Experimental: (§1) The efficacy of RIP1 inhibitors can be tested […] in vitro using a human monocytic leukemia U937 or mouse L929 fibrosarcoma cells in a necroptosis assay. As determined using the method described in He, S. et al. 2009. Cell 137(6):1100-1111 and International Patent Appln. No. PCT/IB2014/059004, now, International Patent Appln. Pub.
(§2) Viability was measured by quantitating cellular levels of ATP using the Cell Titer-Glo kit. All data are means±standard deviation of the mean.

[2] = system: human monocytic leukemia U937 cells; test: necroptosis assay in U937 cells; assay type: cell-based; conditions: viability by cellular ATP (Cell Titer-Glo); for IC50: Homo sapiens, U-937, U937 cells, read-out: mean pIC50, inhibition of necrosis in U937 cells (converted)
Experimental: as §1, §2

Row | Compound | pIC50 (RIP1 kinase) | IC50 [2] [nM] | other results
1 | O=C(C1CCN(c2ccc(F)cn2)CC1)N1N=CCC1c1ccccc1 (stereo not shown) [Example 2, (1-(5-fluoropyridin-2-yl)-piperidin-4-yl)(5-phenyl-4,5-dihydro-1H-pyrazol-1-yl)methanone] | ~7.40 | – | IC50 [1]: ~200 nM
2 | O=C(C1CCN(c2ccc(F)cn2)CC1)N1N=CC[C@H]1c1ccccc1 [Example 3, (S)-(1-(5-fluoropyridin-2-yl)piperidin-4-yl)(5-phenyl-4,5-dihydro-1H-pyrazol-1-yl)methanone] | 8.00 to 9.00 | 1 to 100 | –
3 | O=C(C1CCN(c2ncc(F)cn2)CC1)N1N=CC[C@H]1c1ccccc1 [Example 7, (S)-(1-(5-fluoropyrimidin-2-yl)piperidin-4-yl)(5-phenyl-4,5-dihydro-1H-pyrazol-1-yl)methanone] | 8.00 to 9.00 | 1 to 100 | –
4 | O=C(C1CCN(c2ncccn2)CC1)N1N=CCC1c1cncc(F)c1 (stereo not shown) [Example 11, (5-(5-fluoropyridin-3-yl)-4,5-dihydro-1H-pyrazol-1-yl)(1-(pyrimidin-2-yl)-piperidin-4-yl)methanone] | ~7.50 | – | –
5 | CC(=O)N1CCC(C(=O)N2N=CCC2c2ccc3c(c2)OCO3)CC1 (stereo not shown) [Example 12, 1-(4-(5-(benzo[d][1,3]-dioxol-5-yl)-4,5-dihydro-1H-pyrazole-1-carbonyl)-piperidin-1-yl)ethanone] | ~6.30 | – | –
6 | Cc1ccc(C(=O)N2N=CCC2c2ccccc2)cc1 (stereo not shown) [Example 17, (5-phenyl-4,5-dihydro-1H-pyrazol-1-yl)(p-tolyl)-methanone] | ~6.90 | ~631 | –
7 | O=C(C1CCN(c2ncccn2)CC1)N1N=CC[C@H]1c1cccnc1 [Example 32, (S)-(5-(pyridin-3-yl)-4,5-dihydro-1H-pyrazol-1-yl)(1-(pyrimidin-2-yl)-piperidin-4-yl)-methanone] | ~7.50 | ~158 | –
8 | CC(C)(C)C(=O)N1N=CC[C@H]1c1ccc(Cl)c(Cl)c1 [Example 40, (S)-1-(5-(3,4-dichlorophenyl)-4,5-dihydro-1H-pyrazol-1-yl)-2,2-dimethyl-propan-1-one] | ~7.30 | – | IC50 [1]: ~15.8 nM
9 | CC(C)(C)C(=O)N1N=CC[C@H]1c1cccc(Cl)c1 [Example 44, (S)-1-(5-(3-chlorophenyl)-4,5-dihydro-1H-pyrazol-1-yl)-2,2-dimethyl propan-1-one] | – | – | IC50 [1]: ~39.8 nM
10 | CC(C)(C)C(=O)N1N=CC[C@H]1C1CCCCC1 [Example 56, (S)-1-(5-cyclohexyl-4,5-dihydro-1H-pyrazol-1-yl)-2,2-dimethylpropan-1-one] | – | – | IC50 [1]: ~50.1 nM
11 | CC(C)(C)C(=O)N1N=CC[C@H]1c1ccc(C(F)(F)F)cc1 [Example 62, (S)-2,2-dimethyl-1-(5-(4-(trifluoromethyl)-phenyl)-4,5-dihydro-1H-pyrazol-1-yl)propan-1-one] | ~7.10 | – | mean pIC50, inhibition of necrosis in U937 cells ([2]; U937 cells): ~7.2
12 | CC(C)(C)C(=O)N1N=CC[C@H]1c1cccc(F)c1 [Example 68, (S)-1-(5-(3-fluorophenyl)-4,5-dihydro-1H-pyrazol-1-yl)-2,2-dimethyl-propan-1-one 2,2,2-trifluoroacetate] | – | – | IC50 [1]: ~5.01 nM
13 | O=C(C1CCN(c2ccccn2)CC1)N1N=CC[C@H]1c1cccnc1 [Example 70, (S)-(1-(pyridin-2-yl)piperidin-4-yl) (5-(pyridin-3-yl)-4,5-dihydro-1H-pyrazol-1-yl)-methanone] | ~6.40 | – | –
14 | O=C(c1noc2ccccc12)N1CCC(C(=O)N2N=CCC2c2ccccc2)CC1 (stereo not shown) [Example 146, benzo[d]isoxazol-3-yl(4-(5-phenyl-4,5-dihydro-1H-pyrazole-1-carbonyl)piperidin-1-yl)methanone] | – | 1 to 100 | –
15 | O=C(c1cnco1)N1CCC(C(=O)N2N=CCC2c2ccccc2)CC1 (stereo not shown) [Example 147, oxazol-5-yl(4-(5-phenyl-4,5-dihydro-1H-pyrazole-1-carbonyl)piperidin-1-yl)methanone] | – | 1 to 100 | –
16 | O=C(c1ncco1)N1CCC(C(=O)N2N=CCC2c2ccccc2)CC1 (stereo not shown) [Example 148, oxazol-2-yl(4-(5-phenyl-4,5-dihydro-1H-pyrazole-1-carbonyl)piperidin-1-yl)methanone] | – | 1 to 100 | –
17 | O=C(c1ccno1)N1CCC(C(=O)N2N=CCC2c2ccccc2)CC1 (stereo not shown) [Example 151, isoxazol-5-yl(4-(5-phenyl-4,5-dihydro-1H-pyrazole-1-carbonyl)piperidin-1-yl)methanone] | – | 1 to 100 | –
18 | O=C(c1ccon1)N1CCC(C(=O)N2N=CCC2c2ccccc2)CC1 (stereo not shown) [Example 153, isoxazol-3-yl(4-(5-phenyl-4,5-dihydro-1H-pyrazole-1-carbonyl)piperidin-1-yl)methanone] | – | 1 to 100 | –

Row | Compound | pIC50 (RIP1 kinase) | IC50 [2] [nM] | other results
19 | O=C(c1cscn1)N1CCC(C(=O)N2N=CCC2c2ccccc2)CC1 (stereo not shown) [Example 154, (5-phenyl-4,5-dihydro-1H-pyrazol-1-yl)(1-(thiazole-4-carbonyl)piperidin-4-yl)methanone] | – | 1 to 100 | –
20 | O=C(c1ccccc1)N1CCC(C(=O)N2N=CCC2c2ccccc2)CC1 (stereo not shown) [Example 164, (1-benzoylpiperidin-4-yl)(5-phenyl-4,5-dihydro-1H-pyrazol-1-yl)methanone] | – | 1 to 100 | –
21 | O=C(C1CCN(c2ncccn2)CC1)N1N=CCC1c1ccccc1 (stereo not shown) [Example 171, (5-phenyl-4,5-dihydro-1H-pyrazol-1-yl)(1-(pyrimidin-2-yl)piperidin-4-yl)methanone] | – | 1 to 100 | –
22 | O=C(C1CCN(c2ncccn2)CC1)N1N=CC[C@H]1c1ccccc1 [Example 172, (S)-(5-phenyl-4,5-dihydro-1H-pyrazol-1-yl)(1-(pyrimidin-2-yl)piperidin-4-yl)methanone] | – | – | IC50 [1]: ~631 nM
23 | O=C(c1cccs1)N1N=CCC1c1ccccc1 (stereo not shown) [Example 174, (5-phenyl-4,5-dihydro-1H-pyrazol-1-yl)(thiophen-2-yl)methanone 2,2,2-trifluoroacetate] | – | ~501 | –
24 | Cn1cccc1C(=O)N1CCC(C(=O)N2N=CCC2c2ccccc2)CC1 (stereo not shown) [Example 175, (1-methyl-1H-pyrrol-2-yl)(4-(5-phenyl-4,5-dihydro-1H-pyrazole-1-carbonyl)piperidin-1-yl)methanone 2,2,2-trifluoroacetalc] | – | 1 to 100 | –
25 | O=C(C1CCN(c2ccccn2)CC1)N1N=CCC1c1ccccc1 (stereo not shown) [Example 176, (5-phenyl-4,5-dihydro-1H-pyrazol-1-yl)(1-(pyridin-2-yl)piperidin-4-yl)methanonc 2,2,2-trifluoroacctate] | – | 1 to 100 | –
26 | O=C(C1CCN(c2ccccn2)CC1)N1N=CC[C@H]1c1ccccc1 [Example 177, (S)-(5-phenyl-4,5-dihydro-1H-pyrazol-1-yl)(1-(pyridin-2-yl)piperidin-4-yl)methanone] | – | 1 to 100 | –
27 | O=C(C1CCN(c2ccc(C(F)(F)F)cn2)CC1)N1N=CCC1c1ccccc1 (stereo not shown) [Example 179, (5-phenyl-4,5-dihydro-1H-pyrazol-1-yl)(1-(5-(trifluoromethyl)pyridin-2-yl)piperidin-4-yl)methanone 2,2,2-trifluoroacetate] | – | 1 to 100 | –
28 | O=C(C1CCN(c2nc3ccccc3o2)CC1)N1N=CCC1c1ccccc1 (stereo not shown) [Example 180, (1-(benzo[d]oxazol-2-yl)piperidin-4-yl)(5-phenyl-4,5-dihydro-1H-pyrazol-1-yl)methanone 2,2,2-trifluoroacetate] | – | 1 to 100 | –
29 | O=C(C1CCN(c2ncc(F)cn2)CC1)N1N=CCC1c1ccc2c(c1)CCC2 (stereo not shown) [Example 184, (5-(2.3-dihydro-1H-inden-5-yl)-4,5-dihvdro-1H-pyrazol-1-yl)(1-(5-fluoropyrimidin-2-yl)piperidin-4-yl)methanone] | – | 1 to 100 | –
30 | O=C(C1CCN(c2ncc(F)cn2)CC1)N1N=CCC1c1ccc(OC(F)F)cc1 (stereo not drawn) [Example 185, (5-(4-(difluoromethoxy)phenyl)-4,5-dihydro-1H-pyrazol-1-yl)(l-(5-fluoropyrimidin-2-yl)piperidin-4-yl)methanone] | – | 1 to 100 | –
31 | Cc1ccc(C2CC=NN2C(=O)C2CCN(c3ncc(F)cn3)CC2)cn1 (stereo not shown) [Example 187, (1-(5-fluoropyrimidin-2-yl)piperidin-4-yl)(5-(6-methylpyridin-3-yl)-4,5-dihydro-1H-pyrazol-1-yl)methanone] | – | 1 to 100 | –
32 | N#Cc1ccc(C2CC=NN2C(=O)C2CCN(c3ncc(F)cn3)CC2)cc1 (stereo not shown) [Example 188, 4-(1-(1-(5-fluoropyrimidin-2-yl)piperidine-4-carbonyl)-4,5-dihydro-1H-pyrazol-5-yl)benzonitrile] | – | 1 to 100 | –
33 | O=C(N1N=CCC1c1ccccc1)C1(F)CCN(c2ncc(F)cn2)CC1 (stereo not shown) [Example 189, (4-fluoro-1-(5-fluoropyrimidin-2-yl)piperidin-4-yl)(5-phenyl-4,5-dihydro-1H-pyrazol-1-yl)methanone] | 8.00 to 9.00 | 1 to 100 | –
34 | CC1(C(=O)N2N=CCC2c2ccccc2)CCN(c2ncc(F)cn2)CC1 (stereo not shown) [Example 190, (1-(5-fluoropyrimidin-2-yl)-4-methylpiperidin-4-yl)(5-phenyl-4,5-dihydro-1H-pyrazol-1-yl)methanone] | – | 1 to 100 | –
35 | O=C(c1cccnc1)N1N=CCC1c1ccccc1 (stereo not shown) [Example 209] | – | ~2000 | –
